{
  "source": "patent US8389739B1",
  "about": "“Modulators of retinoid-related orphan receptor gamma” (Orphagen Pharmaceuticals, priority 2006, dated 2013)",
  "system": "TH-17 cells",
  "assay": "TH-17 cell frequency in lymph nodes of PLP-immunized SJL/J mice",
  "format": "in vivo",
  "details": "100 mg/kg OR-1050 in HRC-6 daily, day 9 after PLP immunization; fraction of total CD4+ cells",
  "method": "FIGS. 11D-F SJL/J mice were immunized with 75 μg PLP139-151 (Day 0). Osmotic pumps delivering vehicle or OR-1050 ([…]) were inserted at Days 3 and 4. Day of onset (FIG. 11E) compares the first day when EAE severity is 1 or higher. The ratio of Th-17 cells (CD4^+CD8^−IL17^+) to […] was analyzed in a separate study (F FIG. 11F) at day 9 after immunization with PLP where mice had been dosed daily with OR-1050 (100 mg/kg in HRC-6) since […]. Statistics (panels A, B, D, F) were performed by Student's t-test. *, P<0.05; #, P<0.01 (mean±sem, n=7-10) or by the Mann-Whitney rank order test (FIGS. 11C, E, median values shown).\nSince OR-1050 inhibits TH-17 cells in ex vivo culture, we also investigated whether TH-17 cell frequency was affected in OR-1050-treated animals. SJL/J female mice (n=9/group) were treated with 100 mg/kg OR-1050 in HRC-6 beginning two days before immunization with PLP (as described above) and continuing until 8 days after immunization. Animals were sacrificed on day 9, and TH-17 cells analyzed from pooled axillary, brachial, and inguinal lymph nodes from each animal. We found a 35% reduction in TH-17 frequency in lymph nodes of SJL/J mice (FIG. 11F) as a fraction of the total CD4^+ cell population. The change in TH-17 frequency with OR-1050 treatment was statistically significant.",
  "data": [
    {"smiles": "CCN(c1ccc(C(O)(C(F)(F)F)C(F)(F)F)cc1)S(=O)(=O)c1ccc([N+](=O)[O-])cc1", "note": "[OR-1050, N-Ethyl-4-nitro-N-[4-(2,2,2-trifluoro-1-hydroxy-1-trifluoromethyl-ethyl)-phenyl]-benzenesulfonamide]", "values": [
      {"measurement": "reduction in TH-17 frequency in lymph nodes", "result": 35, "unit": "%"}
    ]}
  ]
}
